This is an account of results in US5242938A, “Derivatives of virginiamycin M1” (Merck & Co., Inc., priority 1992, dated 1993).

Converted amounts (≈) assume the structure as drawn. Read-outs that look alike come from different tables or passages of the source. Some results are limits rather than exact numbers.

Test [1] addresses T1, CCK-B (guinea pig cortex) (Cavia porcellus, UniProt H0VZC5).
T1 construct: guinea pig cortical preparations; from tissue; host or cells: guinea pig brain cortex membranes
T1 sequence (H0VZC5 1-426): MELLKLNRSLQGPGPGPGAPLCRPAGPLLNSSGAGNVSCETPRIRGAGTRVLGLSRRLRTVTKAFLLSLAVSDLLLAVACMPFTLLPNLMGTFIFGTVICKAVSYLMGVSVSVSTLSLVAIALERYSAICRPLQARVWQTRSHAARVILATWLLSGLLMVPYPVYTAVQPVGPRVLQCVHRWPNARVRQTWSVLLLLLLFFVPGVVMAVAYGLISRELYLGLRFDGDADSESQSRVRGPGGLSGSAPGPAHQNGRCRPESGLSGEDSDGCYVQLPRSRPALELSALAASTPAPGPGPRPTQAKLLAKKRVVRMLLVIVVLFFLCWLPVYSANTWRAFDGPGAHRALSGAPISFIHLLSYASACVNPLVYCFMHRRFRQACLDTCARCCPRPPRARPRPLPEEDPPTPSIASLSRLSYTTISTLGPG
The experiment in a line: [125I]BHCCK-8 radioligand binding, guinea pig cortical preparation. The settings on record: read-out: CCK binding inhibition - IC50, [125I]BHCCK. The method, then: (§1) The resulting supernatant was re-spun at 20,000×g for 20 minutes. […] Incubations were for 40 minutes at 4° C. and were terminated by filtration and washing with ice cold 100 mM saline. […] Incubations were for 30 minutes at room temperature and were terminated by filtration over GF/C filters and washing with 100 mM NaCl.

Test [2] has as its target T1, CCK-B (guinea pig cortex). In words: [3H]L-365,260 CCK-B selective antagonist ligand binding, brain membranes. The conditions noted are these: for IC50: read-out: CCK binding inhibition - IC50, [3H]L-365,260. Here is the method:
as §1

In test [3] the target is T2, CCK-A (rat pancreas) (Rattus norvegicus, UniProt P30551).
T2 construct: from tissue; host or cells: rat pancreas
T2 sequence (P30551 1-444): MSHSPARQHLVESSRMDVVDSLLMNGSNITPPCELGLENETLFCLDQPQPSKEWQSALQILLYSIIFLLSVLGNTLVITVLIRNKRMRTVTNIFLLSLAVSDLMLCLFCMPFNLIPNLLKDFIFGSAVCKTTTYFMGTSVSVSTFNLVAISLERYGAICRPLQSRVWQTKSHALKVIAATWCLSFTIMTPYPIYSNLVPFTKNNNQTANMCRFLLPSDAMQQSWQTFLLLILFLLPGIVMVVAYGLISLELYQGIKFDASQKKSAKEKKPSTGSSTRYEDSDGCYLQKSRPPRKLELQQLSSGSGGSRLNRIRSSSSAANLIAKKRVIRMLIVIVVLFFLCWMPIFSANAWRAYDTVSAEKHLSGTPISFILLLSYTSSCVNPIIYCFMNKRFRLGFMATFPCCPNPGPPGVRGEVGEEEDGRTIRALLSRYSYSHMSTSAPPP
In words: [125I]BHCCK-8 radioligand binding, rat pancreatic preparation. The settings on record: read-out: CCK binding inhibition - IC50, [125I]BHCCK. The method, then:
as §1

Test [4] has as its target T2, CCK-A (rat pancreas). The experiment in a line: [3H]L-364,718 CCK-A selective antagonist ligand binding, pancreas. The settings on record: read-out: CCK binding inhibition - IC50, [3H]L-364,718. The method, then: as §1
Test [5] deals with Bacillus sp. (Mb 633). The experiment in a line: Agar diffusion disc assay, Baci 633. The settings on record: Bacillus, 18 h. Format: cell-based. Here is the method:
(§2) Cultures employed in evaluating antimicrobial activity included plant pathogens, human and animal opportunistic pathogens and selected laboratory strains having specific-antibiotic sensitivities or chromosomal or R-plasmid-mediated resistances. […] The agar diffusion MIC's were determined using the method described by Barry in Anitbiotics in Laboratory Medicine, 2nd Ed., Ed. V. Lorian, pp. 1-63, William & Wilkins, Baltimore, 1986. Each test compound was dissolved in methanol to a concentration of 1 mg/ml. Serial dilutions of these compounds were also made to determine an agar diffusion MIC. 20 μl of each dilution was pipetted on to 6 mm paper discs, air dried and placed onto the surface of an agar plate seeded with the appropriate bacteria (~10^6 cfu). Seeded agar plates were incubated overnight (~18 hours) at 25° C. Zone sizes were measured to the nearest mm. Each compound was tested in triplicate and the results shown represent the mean.
Background: Agar diffusion results depend on both activity and mobility in agar.

For test [6], the system named is Staphylococcus aureus (Mb 108, ATCC 6538P). In words: Agar diffusion disc assay, Sta 108. The test is classed as cell-based. The settings on record: Staphylococcus aureus, ATCC6538P, 18 h; @ 20 g/disc; read-out: Inhibition zone diameter, Sta 108. Here is the method: as §2
Test [7] concerns Bacillus subtilis (Mb 964, ATCC 6633). The experiment in a line: Agar diffusion disc assay, Subt 964. Format: cell-based. The settings on record: Bacillus subtilis, ATCC6633, 18 h; @ 20 g/disc; read-out: Inhibition zone diameter, Subt 964. The method, then:
as §2

Test [8] concerns Micrococcus luteus (Mb 1101, ATCC 9341). The experiment in a line: Agar diffusion disc assay, Micr 1101. The conditions noted are these: Micrococcus luteus; for MIC: read-out: Agar Diffusion MIC versus Micrococcus luteus; for zone of inhibition at 2.5 µg/disc: 2.50 μg/disc; for zone of inhibition at 5 µg/disc: 5.00 μg/disc; for zone of inhibition at 10 µg/disc: 10.0 μg/disc; for zone of inhibition at 1.25 µg/disc: 1.25 μg/disc. The test is classed as cell-based. Here is the method:
as §2

The test system of test [9] is Staphylococcus aureus (Mb 2983). The experiment in a line: Agar diffusion disc assay, Sta 2983. Format: cell-based. The conditions noted are these: Staphylococcus aureus, 18 h; @ 20 g/disc; read-out: Inhibition zone diameter, Sta 2983. Here is the method: as §2
Test [10] concerns Corynebacterium pseudodiphtheriticum (Mb 261, ATCC 9742). In words: Agar diffusion disc assay, Cory 261. Format: cell-based. The settings on record: Corynebacterium pseudodiphtheriticum, ATCC9742, 18 h; @ 20 g/disc; read-out: Inhibition zone diameter, Cory 261. Here is the method: as §2
For test [11], the system named is Streptococcus faecium (Mb 2820). In words: Agar diffusion disc assay, Str 2820. The test is classed as cell-based. The conditions noted are these: Enterococcus faecium, 18 h; @ 20 g/disc; read-out: Inhibition zone diameter, Str 2820. Here is the method:
as §2

Test [12] deals with Streptococcus agalactiae (Mb 2875). The experiment in a line: Agar diffusion disc assay, Str 2875. The settings on record: Streptococcus agalactiae, 18 h; @ 20 g/disc; read-out: Inhibition zone diameter, Str 2875. The test is classed as cell-based. Here is the method:
as §2

Test [13] has as its system Salmonella gallinarum (Mb 1287). In words: Agar diffusion disc assay, Salm 1287. The test is classed as cell-based. The settings on record: Salmonella enterica, GALLINARUM, 18 h; @ 20 g/disc; read-out: Inhibition zone diameter, Salm 1287. The method, then:
as §2

Test [14] relates to Escherichia coli (Mb 1418). The experiment in a line: Agar diffusion disc assay, Coli 1418. The test is classed as cell-based. The conditions noted are these: Escherichia coli, 18 h; @ 20 g/disc; read-out: Inhibition zone diameter, Coli 1418. Here is the method:
as §2

Test [15] relates to Pseudomonas stutzeri (Mb 1231, ATCC 11607). In words: Agar diffusion disc assay, Pseu 1231. The test is classed as cell-based. The settings on record: Stutzerimonas stutzeri, ATCC11607, 18 h; @ 20 g/disc; read-out: Inhibition zone diameter, Pseu 1231. The method, then:
as §2

For test [16], the system named is En terobacter aergenes (Mb 835). In words: Agar diffusion disc assay, Ent 835. The test is classed as cell-based. The conditions noted are these: 18 h; @ 20 g/disc; read-out: Inhibition zone diameter, Ent 835. The method, then: as §2
The mark [17] stands for this setting: ATCC9341, 18 h, @ 20 g/disc, read-out: Inhibition zone diameter, Micr 1101.
The mark [18] stands for this setting: ATCC9341, 25° C., ~18 hours, read-out: Mean of triplicate zone size versus Micrococcus luteus.
The mark [19] stands for this setting: ATCC9341, 20.0 μg/disc, 25° C., ~18 hours, read-out: Mean of triplicate zone size versus Micrococcus luteus.
Setting [20] is: @ 20 g/disc, read-out: Inhibition zone diameter, Baci 633.

The IC50 is the concentration at which inhibition is half-maximal. The MIC is the lowest concentration that inhibits growth of the organism. In the case of `CCC(=O)O[C@@H]1/C=C(C)/C=C/CNC(=O)/C=C/[C@@H](C)[C@@H](C(C)C)OC(=O)C2=CCCN2C(=O)c2coc(n2)CC(=O)C1` [Example 3], the IC50 was 600 nM in test [1], 1000 nM in test [2], greater than 3 µM in test [3] and greater than 3 µM in [4]. Moreover, in test [2], the “A.R. = agonist ratio = IC50([3H]L365,260)/IC50([125I]CCK)” value worked out at 2. The zone of inhibition at 20 µg/disc in test [5] (read-out: Inhibition zone diameter, Baci 633, @ 20 g/disc) is 11 mm; in test [6] it was 0 mm; in [7], 21 mm; in test [8] (setting [17]), 0 mm; in [8] (setting [19]), 19 mm; in [9], 12 mm. Further, the zone of inhibition at 20 µg/disc in [10], in test [11], in test [12], in [13], in test [14] and in test [15] was 0 mm throughout. For the same compound, in test [16], the zone of inhibition at 20 µg/disc was 0 mm. Further, in test [8] (ATCC9341, 18 h), the MIC came to 2.51 µM (≈ 1.46 µg/mL). Moreover, the zone of inhibition at 2.5 µg/disc in [8] (setting [18]) stood at 7 mm. Moreover, the zone of inhibition at 5 µg/disc in test [8] (setting [18]) worked out at 13 mm. Moreover, the zone of inhibition at 10 µg/disc in test [8] (setting [18]) came out at 17 mm.
As to `CCCCC(=O)O[C@@H]1/C=C(C)/C=C/CNC(=O)/C=C/[C@@H](C)[C@@H](C(C)C)OC(=O)C2=CCCN2C(=O)c2coc(n2)CC(=O)C1` [Example 4], the IC50 was 500 nM in test [1], 1200 nM in test [2], greater than 3 µM in [3] and greater than 3 µM in test [4]. The “A.R. = agonist ratio = IC50([3H]L365,260)/IC50([125I]CCK)” value in [2] turned out to be 2. Also, the zone of inhibition at 20 µg/disc in test [5] (setting [20]) was determined as 0 mm; in test [6], 0 mm; in test [7], 0 mm; in test [8] (setting [17]) it was 25 mm; in test [8] (setting [19]), 22 mm; in test [9], 0 mm. Besides, the zone of inhibition at 20 µg/disc in test [10], in [11], in test [12], in [13], in test [14] and in test [15] was 0 mm each time. For the same compound, in test [16], the zone of inhibition at 20 µg/disc came out at 0 mm. For the same compound, in [8] (ATCC9341, 18 h), the MIC stood at 0.54 µM (≈ 0.329 µg/mL). Besides, the zone of inhibition at 1.25 µg/disc in test [8] (setting [18]) is 12 mm. Also, the zone of inhibition at 2.5 µg/disc in [8] (setting [18]) was determined as 16 mm. Besides, the zone of inhibition at 5 µg/disc in test [8] (setting [18]) was determined as 19 mm. In test [8] (setting [18]), the zone of inhibition at 10 µg/disc worked out at 21 mm.
`CC1=C\[C@@H](OC(=O)Nc2ccccc2[N+](=O)[O-])CC(=O)Cc2nc(co2)C(=O)N2CCC=C2C(=O)O[C@H](C(C)C)[C@H](C)/C=C/C(=O)NC\C=C\1` [Example 8]: the IC50 was 300 nM in test [1], 3100 nM in [2], greater than 3 µM in test [3] and greater than 3 µM in test [4]. Further, the “A.R. = agonist ratio = IC50([3H]L365,260)/IC50([125I]CCK)” value in test [2] was 10. The zone of inhibition at 20 µg/disc in [5] (setting [20]) was determined as 0 mm; in test [6] it was 7 mm; in [7], 0 mm; in test [8] (setting [17]) it was 16 mm; in test [8] (setting [19]) it was 16 mm; in test [9], 0 mm. For the same compound, the zone of inhibition at 20 µg/disc in test [10] was 9 mm; in test [11], 0 mm; in [12] it was 0 mm; in test [13] it was 0 mm; in [14], 0 mm; in [15] it was 0 mm. In addition, the zone of inhibition at 20 µg/disc in test [16] was 0 mm. Besides, in test [8] (ATCC9341, 18 h), the MIC was found to be 0.019 µM (≈ 0.0131 µg/mL). Also, in [8] (setting [18]), the zone of inhibition at 1.25 µg/disc amounted to 12 mm. Besides, the zone of inhibition at 2.5 µg/disc in test [8] (setting [18]) came to 15 mm. In addition, in [8] (setting [18]), the zone of inhibition at 5 µg/disc was 15 mm. Besides, the zone of inhibition at 10 µg/disc in test [8] (setting [18]) worked out at 16 mm.
